Read-outs that look alike come from different tables or passages of the source.
How the values were obtained:
Assay type in all cases: binding
[1] = biological target: broad panel of kinases (Homo sapiens, UniProt O14730); conditions: RIOK3; 1 μM
[2] = biological target: broad panel of kinases (Homo sapiens, UniProt O14733); conditions: MKK7; 1 μM
[3] = biological target: broad panel of kinases (Homo sapiens, UniProt O43683); conditions: BUB1; 1 μM
[4] = biological target: broad panel of kinases (Homo sapiens, UniProt O75676); conditions: 1 μM
[5] = biological target: broad panel of kinases (Homo sapiens, UniProt O94768); conditions: DRAK2; 1 μM
[6] = biological target: broad panel of kinases (Homo sapiens, UniProt O96013); conditions: PAK4; 1 μM
[7] = biological target: broad panel of kinases (Homo sapiens, UniProt P00519, M351T); conditions: ABL1(M351T)-phosphorylated; 1 μM
[8] = biological target: broad panel of kinases (Homo sapiens, UniProt P08069); conditions: IGF1R; 1 μM
[9] = biological target: broad panel of kinases (Homo sapiens, UniProt P10721, L576P); conditions: KIT(L576P); 1 μM
broad panel of kinases (Homo sapiens, UniProt P10721, L576P), sequence (P10721 26-976 L576P limits assumed): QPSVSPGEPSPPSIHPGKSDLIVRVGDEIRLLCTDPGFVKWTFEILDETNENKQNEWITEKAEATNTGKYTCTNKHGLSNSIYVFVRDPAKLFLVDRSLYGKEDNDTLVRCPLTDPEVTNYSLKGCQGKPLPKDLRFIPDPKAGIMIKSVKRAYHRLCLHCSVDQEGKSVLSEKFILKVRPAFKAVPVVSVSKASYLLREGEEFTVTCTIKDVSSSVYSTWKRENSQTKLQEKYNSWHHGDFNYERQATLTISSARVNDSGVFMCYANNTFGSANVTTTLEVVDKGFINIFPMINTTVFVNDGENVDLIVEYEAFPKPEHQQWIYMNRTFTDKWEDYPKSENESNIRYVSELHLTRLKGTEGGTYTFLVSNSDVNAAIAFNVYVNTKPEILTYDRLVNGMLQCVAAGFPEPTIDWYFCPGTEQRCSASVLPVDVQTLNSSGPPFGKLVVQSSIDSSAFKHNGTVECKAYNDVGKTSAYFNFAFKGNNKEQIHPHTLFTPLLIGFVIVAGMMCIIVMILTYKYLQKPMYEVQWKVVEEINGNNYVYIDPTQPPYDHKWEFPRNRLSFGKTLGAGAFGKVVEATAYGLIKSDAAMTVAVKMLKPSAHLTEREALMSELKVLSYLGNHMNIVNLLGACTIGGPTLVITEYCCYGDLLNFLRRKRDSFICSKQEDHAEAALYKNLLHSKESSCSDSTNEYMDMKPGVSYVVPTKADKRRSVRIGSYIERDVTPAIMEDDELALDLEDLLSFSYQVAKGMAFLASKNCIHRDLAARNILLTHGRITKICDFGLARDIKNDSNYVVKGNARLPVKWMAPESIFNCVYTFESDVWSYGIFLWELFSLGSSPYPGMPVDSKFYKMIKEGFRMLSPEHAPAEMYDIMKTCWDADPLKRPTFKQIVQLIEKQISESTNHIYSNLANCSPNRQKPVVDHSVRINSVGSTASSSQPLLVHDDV

[10] = biological target: broad panel of kinases (Homo sapiens, UniProt P17612); conditions: PKAC-alpha; 1 μM
[11] = biological target: broad panel of kinases (Homo sapiens, UniProt P24723); conditions: PRKCH; 1 μM
[12] = biological target: broad panel of kinases (Homo sapiens, UniProt P29322); conditions: EPHA8; 1 μM
broad panel of kinases (Homo sapiens, UniProt P29322), sequence (P29322 28-1005 limits assumed): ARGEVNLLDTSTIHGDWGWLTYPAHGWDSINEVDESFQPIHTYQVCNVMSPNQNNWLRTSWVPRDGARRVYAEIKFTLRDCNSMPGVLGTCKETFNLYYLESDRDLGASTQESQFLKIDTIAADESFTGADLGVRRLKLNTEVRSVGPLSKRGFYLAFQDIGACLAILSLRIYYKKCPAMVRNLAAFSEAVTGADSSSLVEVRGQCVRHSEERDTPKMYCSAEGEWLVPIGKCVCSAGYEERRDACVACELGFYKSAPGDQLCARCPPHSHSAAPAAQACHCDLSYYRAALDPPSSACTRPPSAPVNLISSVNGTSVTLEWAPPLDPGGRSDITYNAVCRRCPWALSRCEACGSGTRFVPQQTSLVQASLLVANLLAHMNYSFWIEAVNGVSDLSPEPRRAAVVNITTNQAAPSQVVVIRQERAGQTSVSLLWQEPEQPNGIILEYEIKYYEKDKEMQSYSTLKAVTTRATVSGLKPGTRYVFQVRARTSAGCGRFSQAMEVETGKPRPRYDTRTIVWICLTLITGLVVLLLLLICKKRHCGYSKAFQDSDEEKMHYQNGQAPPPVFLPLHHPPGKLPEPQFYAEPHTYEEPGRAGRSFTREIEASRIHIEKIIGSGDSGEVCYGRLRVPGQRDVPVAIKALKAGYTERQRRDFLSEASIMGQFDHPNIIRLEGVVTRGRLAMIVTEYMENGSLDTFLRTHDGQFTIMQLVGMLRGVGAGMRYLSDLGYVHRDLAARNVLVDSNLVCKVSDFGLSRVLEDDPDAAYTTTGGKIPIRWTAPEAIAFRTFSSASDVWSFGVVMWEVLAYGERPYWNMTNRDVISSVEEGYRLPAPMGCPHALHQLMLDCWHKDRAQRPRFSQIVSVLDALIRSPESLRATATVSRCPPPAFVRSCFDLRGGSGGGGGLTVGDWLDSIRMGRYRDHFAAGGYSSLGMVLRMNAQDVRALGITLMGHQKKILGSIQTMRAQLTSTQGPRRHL

[13] = biological target: broad panel of kinases (Homo sapiens, UniProt P42336, H1047Y); conditions: PIK3CA(H1047Y); 1 μM
[14] = biological target: broad panel of kinases (Homo sapiens, UniProt P42336, M1043I); conditions: PIK3CA(M1043I); 1 μM
[15] = biological target: broad panel of kinases (Homo sapiens, UniProt P42681); conditions: TXK; 1 μM
[16] = biological target: broad panel of kinases (Homo sapiens, UniProt Q02779); conditions: MLK2; 1 μM
[17] = biological target: broad panel of kinases (Homo sapiens, UniProt Q05397); conditions: FAK; 1 μM
[18] = biological target: broad panel of kinases (Homo sapiens, UniProt Q08345); conditions: DDR1; 1 μM
broad panel of kinases (Homo sapiens, UniProt Q08345), sequence (Q08345 19-913 limits assumed): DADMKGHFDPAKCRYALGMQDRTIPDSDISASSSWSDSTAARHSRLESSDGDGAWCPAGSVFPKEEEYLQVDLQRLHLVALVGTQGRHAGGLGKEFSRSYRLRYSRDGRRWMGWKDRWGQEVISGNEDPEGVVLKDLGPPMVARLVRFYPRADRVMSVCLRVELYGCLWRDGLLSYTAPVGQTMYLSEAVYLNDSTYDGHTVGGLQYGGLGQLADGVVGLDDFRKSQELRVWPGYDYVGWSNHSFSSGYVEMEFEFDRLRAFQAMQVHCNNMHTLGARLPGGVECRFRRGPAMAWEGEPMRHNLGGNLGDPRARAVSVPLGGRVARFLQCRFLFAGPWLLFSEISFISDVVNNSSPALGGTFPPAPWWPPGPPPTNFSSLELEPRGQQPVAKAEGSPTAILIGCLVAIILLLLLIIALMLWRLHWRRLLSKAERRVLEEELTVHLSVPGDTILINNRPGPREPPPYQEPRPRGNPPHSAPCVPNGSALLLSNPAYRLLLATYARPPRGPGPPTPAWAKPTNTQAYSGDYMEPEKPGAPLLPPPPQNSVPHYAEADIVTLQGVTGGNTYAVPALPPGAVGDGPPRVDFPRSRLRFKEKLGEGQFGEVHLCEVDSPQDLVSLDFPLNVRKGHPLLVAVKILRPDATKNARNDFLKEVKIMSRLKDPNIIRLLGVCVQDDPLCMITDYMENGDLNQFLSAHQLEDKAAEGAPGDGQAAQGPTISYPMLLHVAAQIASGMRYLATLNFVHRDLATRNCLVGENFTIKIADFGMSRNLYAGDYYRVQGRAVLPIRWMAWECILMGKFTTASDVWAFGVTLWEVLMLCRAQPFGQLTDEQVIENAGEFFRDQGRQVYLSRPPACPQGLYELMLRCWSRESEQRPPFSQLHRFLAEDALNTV

[19] = biological target: broad panel of kinases (Homo sapiens, UniProt Q09013); conditions: DMPK; 1 μM
[20] = biological target: broad panel of kinases (Homo sapiens, UniProt Q12851); conditions: MAP4K2; 1 μM
[21] = biological target: broad panel of kinases (Homo sapiens, UniProt Q13705); conditions: ACVR2B; 1 μM
[22] = biological target: broad panel of kinases (Homo sapiens, UniProt Q6XUX3); conditions: RIPK5; 1 μM
[23] = biological target: broad panel of kinases (Homo sapiens, UniProt Q6ZN16); conditions: MAP3K15; 1 μM
[24] = biological target: broad panel of kinases (Homo sapiens, UniProt Q8NE63); conditions: HIPK4; 1 μM
[25] = biological target: broad panel of kinases (Homo sapiens, UniProt Q8TBX8); conditions: PIP5K2C; 1 μM
[26] = biological target: broad panel of kinases (Homo sapiens, UniProt Q96PY6); conditions: NEK1; 1 μM
[27] = biological target: broad panel of kinases (Homo sapiens, UniProt Q96RR4); conditions: CAMKK2; 1 μM
broad panel of kinases (Homo sapiens, UniProt Q96RR4), sequence (Q96RR4 2-588 limits assumed): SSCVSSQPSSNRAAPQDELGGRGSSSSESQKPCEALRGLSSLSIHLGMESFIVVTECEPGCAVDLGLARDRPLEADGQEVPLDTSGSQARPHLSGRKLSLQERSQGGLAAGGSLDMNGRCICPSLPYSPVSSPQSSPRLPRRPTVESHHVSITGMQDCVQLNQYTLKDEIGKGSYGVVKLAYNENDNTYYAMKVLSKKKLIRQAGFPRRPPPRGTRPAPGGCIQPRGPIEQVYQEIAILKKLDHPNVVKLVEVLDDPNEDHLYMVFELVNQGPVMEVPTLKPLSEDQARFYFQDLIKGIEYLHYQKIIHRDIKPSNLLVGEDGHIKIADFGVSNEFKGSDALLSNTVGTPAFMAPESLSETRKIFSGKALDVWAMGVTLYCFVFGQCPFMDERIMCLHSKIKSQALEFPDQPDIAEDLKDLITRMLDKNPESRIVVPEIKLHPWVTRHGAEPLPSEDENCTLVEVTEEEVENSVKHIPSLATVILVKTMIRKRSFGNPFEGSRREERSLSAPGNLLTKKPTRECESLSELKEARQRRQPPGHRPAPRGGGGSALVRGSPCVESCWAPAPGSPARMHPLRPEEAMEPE

[28] = biological target: broad panel of kinases (Homo sapiens, UniProt Q99683); conditions: ASK1; 1 μM
[29] = biological target: broad panel of kinases (Homo sapiens, UniProt Q9BYP7); conditions: WNK3; 1 μM
[30] = biological target: broad panel of kinases (Homo sapiens, UniProt Q9NRP7); conditions: STK36; 1 μM
[31] = biological target: broad panel of kinases (Homo sapiens, UniProt Q9P0L2); conditions: MARK1; 1 μM
[32] = biological target: broad panel of kinases (Homo sapiens, UniProt Q9P2K8, S808G); conditions: GCN2(Kin.Dom.2, S808G); 1 μM
[33] = biological target: broad panel of kinases (Homo sapiens, UniProt Q9UBF8); conditions: PIK4CB; 1 μM
[34] = biological target: broad panel of kinases (Homo sapiens, UniProt Q9UHD2); conditions: TBK1; 1 μM
[35] = biological target: broad panel of kinases (Homo sapiens, UniProt Q9UM73, L1196M); conditions: ALK(L1196M); 1 μM
broad panel of kinases (Homo sapiens, UniProt Q9UM73, L1196M), sequence (Q9UM73 19-1620 L1196M limits assumed): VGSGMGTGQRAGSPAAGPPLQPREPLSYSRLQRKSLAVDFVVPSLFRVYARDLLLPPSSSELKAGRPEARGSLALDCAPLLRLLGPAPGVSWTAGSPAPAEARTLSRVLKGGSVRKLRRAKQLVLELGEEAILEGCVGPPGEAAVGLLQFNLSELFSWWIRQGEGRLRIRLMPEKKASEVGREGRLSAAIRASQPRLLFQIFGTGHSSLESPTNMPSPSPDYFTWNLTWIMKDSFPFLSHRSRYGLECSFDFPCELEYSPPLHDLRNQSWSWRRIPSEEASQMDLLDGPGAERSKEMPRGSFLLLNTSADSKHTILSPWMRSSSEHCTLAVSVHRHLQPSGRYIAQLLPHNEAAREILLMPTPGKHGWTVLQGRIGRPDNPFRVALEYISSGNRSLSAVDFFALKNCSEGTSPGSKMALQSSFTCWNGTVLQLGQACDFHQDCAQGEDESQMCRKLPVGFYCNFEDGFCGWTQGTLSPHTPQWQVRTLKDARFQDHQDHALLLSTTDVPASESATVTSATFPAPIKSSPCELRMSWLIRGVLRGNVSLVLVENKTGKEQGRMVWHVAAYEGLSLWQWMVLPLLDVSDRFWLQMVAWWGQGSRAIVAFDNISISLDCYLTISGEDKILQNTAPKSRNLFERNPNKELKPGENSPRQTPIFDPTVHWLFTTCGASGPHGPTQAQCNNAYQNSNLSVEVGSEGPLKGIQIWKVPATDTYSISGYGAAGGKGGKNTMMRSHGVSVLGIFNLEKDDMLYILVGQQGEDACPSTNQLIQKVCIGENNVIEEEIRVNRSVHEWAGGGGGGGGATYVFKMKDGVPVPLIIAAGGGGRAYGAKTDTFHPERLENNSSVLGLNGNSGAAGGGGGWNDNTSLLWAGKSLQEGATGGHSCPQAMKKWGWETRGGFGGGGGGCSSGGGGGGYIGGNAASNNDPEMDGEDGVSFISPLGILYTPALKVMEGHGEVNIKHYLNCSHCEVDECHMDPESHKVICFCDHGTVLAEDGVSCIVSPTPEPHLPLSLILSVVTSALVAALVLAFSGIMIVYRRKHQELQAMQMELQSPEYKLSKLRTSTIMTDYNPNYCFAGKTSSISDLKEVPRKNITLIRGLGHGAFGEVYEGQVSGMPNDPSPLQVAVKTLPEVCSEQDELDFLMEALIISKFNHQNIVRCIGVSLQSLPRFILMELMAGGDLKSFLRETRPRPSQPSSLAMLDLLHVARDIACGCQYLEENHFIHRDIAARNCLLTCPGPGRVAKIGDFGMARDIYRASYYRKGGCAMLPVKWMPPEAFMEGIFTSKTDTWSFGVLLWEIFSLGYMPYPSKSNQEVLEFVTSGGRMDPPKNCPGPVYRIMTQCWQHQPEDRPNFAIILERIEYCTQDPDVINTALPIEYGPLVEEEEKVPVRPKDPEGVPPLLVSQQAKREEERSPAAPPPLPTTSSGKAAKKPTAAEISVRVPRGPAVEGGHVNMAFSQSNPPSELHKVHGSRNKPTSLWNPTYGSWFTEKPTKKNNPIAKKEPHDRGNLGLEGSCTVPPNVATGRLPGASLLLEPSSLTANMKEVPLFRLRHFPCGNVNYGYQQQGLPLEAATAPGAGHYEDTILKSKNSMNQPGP

[36] = biological target: broad panel of kinases (Mycobacterium tuberculosis, UniProt P9WI81)

| Structure (SMILES) | percent of control binding remaining (lower = stronger binding) [1] [%] | percent of control binding remaining (lower = stronger binding) [2] [%] | percent of control binding remaining (lower = stronger binding) [3] [%] | percent of control binding remaining (lower = stronger binding) ([4]; RPS6KA4(Kin.Dom.1-N-terminal)) [%] | percent of control binding remaining (lower = stronger binding) ([4]; RPS6KA4(Kin.Dom.2-C-terminal)) [%] | percent of control binding remaining (lower = stronger binding) [5] [%] | percent of control binding remaining (lower = stronger binding) [6] [%] | percent of control binding remaining (lower = stronger binding) [8] [%] | percent of control binding remaining (lower = stronger binding) [9] [%] | percent of control binding remaining (lower = stronger binding) [10] [%] | percent of control binding remaining (lower = stronger binding) [11] [%] | percent of control binding remaining (lower = stronger binding) [12] [%] | percent of control binding remaining (lower = stronger binding) [13] [%] | percent of control binding remaining (lower = stronger binding) [14] [%] | percent of control binding remaining (lower = stronger binding) [15] [%] | percent of control binding remaining (lower = stronger binding) [16] [%] | percent of control binding remaining (lower = stronger binding) [17] [%] | percent of control binding remaining (lower = stronger binding) [18] [%] | percent of control binding remaining (lower = stronger binding) [19] [%] | percent of control binding remaining (lower = stronger binding) [20] [%] | other results |
| --- | --- | --- | --- | --- | --- | --- | --- | --- | --- | --- | --- | --- | --- | --- | --- | --- | --- | --- | --- | --- | --- |
| C=CC(=O)N1CC[C@H](Nc2nc(CN3CCOCC3)cc(Nc3ncc(C(=O)Nc4c(C)cccc4C)s3)n2)C1 [Example I-2] | 98 | 88 | 85 | 100 | 96 | 100 | 100 | 100 | 0 | 85 | 97 | 0.75 | 100 | 96 | 0.6 | 100 | 100 | 0.2 | 98 | 87 | percent of control binding remaining (lower = stronger binding) [7]: 0.6%; percent of control binding remaining (lower = stronger binding) [21]: 78%; percent of control binding remaining (lower = stronger binding) [22]: 100%; percent of control binding remaining (lower = stronger binding) [23]: 92%; percent of control binding remaining (lower = stronger binding) [24]: 100%; percent of control binding remaining (lower = stronger binding) [25]: 100%; percent of control binding remaining (lower = stronger binding) [26]: 88%; percent of control binding remaining (lower = stronger binding) [27]: 97%; percent of control binding remaining (lower = stronger binding) [28]: 96%; percent of control binding remaining (lower = stronger binding) [29]: 100%; percent of control binding remaining (lower = stronger binding) [30]: 3.5%; percent of control binding remaining (lower = stronger binding) [31]: 97%; percent of control binding remaining (lower = stronger binding) [32]: 85%; percent of control binding remaining (lower = stronger binding) [33]: 100%; percent of control binding remaining (lower = stronger binding) [34]: 89%; percent of control binding remaining (lower = stronger binding) [35]: 72%; % change compared to control [36]: 73% |
| C=CC(=O)N1CC[C@H](Nc2nccc(Nc3ncc(C(=O)Nc4c(C)cccc4C)s3)n2)C1 [Example I-3] | 90 | 85 | 68 | 100 | 100 | 100 | 100 | 100 | 0 | 85 | 88 | 0.45 | 96 | 100 | 0.7 | 95 | 100 | 0.15 | 98 | 91 | % change compared to control [7]: 0.7%; percent of control binding remaining (lower = stronger binding) [21]: 95%; percent of control binding remaining (lower = stronger binding) [22]: 86%; percent of control binding remaining (lower = stronger binding) [23]: 100%; percent of control binding remaining (lower = stronger binding) [24]: 97%; percent of control binding remaining (lower = stronger binding) [25]: 100%; percent of control binding remaining (lower = stronger binding) [26]: 85%; percent of control binding remaining (lower = stronger binding) [27]: 100%; percent of control binding remaining (lower = stronger binding) [28]: 91%; percent of control binding remaining (lower = stronger binding) [29]: 100%; percent of control binding remaining (lower = stronger binding) [30]: 25%; percent of control binding remaining (lower = stronger binding) [31]: 93%; percent of control binding remaining (lower = stronger binding) [32]: 100%; percent of control binding remaining (lower = stronger binding) [33]: 36%; percent of control binding remaining (lower = stronger binding) [34]: 94%; percent of control binding remaining (lower = stronger binding) [35]: 76%; % change compared to control [36]: 91% |
